# Measured values taken from patent US9522914B2, “Azole derivative” (TAISHO PHARMACEUTICAL CO., LTD, priority 2011, dated 2016).
# How the values were obtained:
# [1] = biological target: T1, Human V1b receptor (Homo sapiens (Human), UniProt P47901); assay: Binding Test for V1b Receptor ([3H]AVP, crude membrane preparation of 293FT cells); conditions: inhibition of [3H]AVP binding (0.4 to 1 nmol/L), room temperature, 60 minutes
# In short: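 Crude membranes from 293FT cells transiently expressing human V1b, incubated with [3H]AVP (0.4 to 1 nmol/L) and compound (0.01 nmol/L–1 μmol/L final) in Tris pH 7.4 with MgCl2 and 0.1% BSA, 60 min at room temperature. Bound label collected by filtration. Nonspecific binding defined with unlabeled AVP; IC50 from dose-response curve.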
# [2] = biological target: T1, Human V1b receptor; assay: Measurement of V1b Receptor Antagonistic Activity (AVP-induced Fluo-4 fluorescence in CHO cells, FDSS); type: cell-based; conditions: inhibition of the response to AVP 2.5 nmol/L, CHO cells stably expressing human V1b receptor
# Protocol: Measurement of V1b Receptor Antagonistic Activity
# CHO cells (ATCC) so modified as to express human V1b receptor in a stable manner were cultured in Ham's F-12 medium (containing 10% FBS and 0.5 mg/mL Geneticin). On the day before the test, seeding was conducted at a density of 20,000 cells/well in a 96-well poly-D-lysine coated black plate. On the day of the test, the culture medium was removed, and a loading solution (1×HBSS, 10 mmol/L HEPES, 0.1% bovine serum albumin, 1.25 mmol/L Probenecid, 0.02% Pluronic F-127, 1.5 μmol/L Fluo-4-AM, pH 7.4) was added to each well, followed by incubation in a CO2 incubator for an hour. After the incubation, the loading solution was removed. A test solution (1×HBSS, 10 mmol/L HEPES, 0.1% bovine serum albumin, 1.25 mmol/L Probenecid, pH 7.4) containing any one of test compounds was added to wells, followed by incubation in a CO2 incubator for 30 minutes. The test compound was serially diluted with DMSO so that it would have final concentrations of 0.1 nmol/L to […] at the time of assaying. After the incubation, fluorescence intensity levels were measured and AVP added by means of FDSS (Hamamatsu Photonics K.K.); AVP was added to give a final concentration of 2.5 nmol/L at the time of assaying. […] The fluorescence level in a well to which neither test compound nor AVP was added was defined as 0%, and the fluorescence level in a well to which only AVP was added and no test compound was added was defined as 100%. A dose-response curve was plotted from fluorescence levels after the addition of AVP in the presence of a test compound at various concentrations, and the 50% inhibitory concentration (IC50 value) of the compound was calculated.
# T1 sequence (P47901 whole entry): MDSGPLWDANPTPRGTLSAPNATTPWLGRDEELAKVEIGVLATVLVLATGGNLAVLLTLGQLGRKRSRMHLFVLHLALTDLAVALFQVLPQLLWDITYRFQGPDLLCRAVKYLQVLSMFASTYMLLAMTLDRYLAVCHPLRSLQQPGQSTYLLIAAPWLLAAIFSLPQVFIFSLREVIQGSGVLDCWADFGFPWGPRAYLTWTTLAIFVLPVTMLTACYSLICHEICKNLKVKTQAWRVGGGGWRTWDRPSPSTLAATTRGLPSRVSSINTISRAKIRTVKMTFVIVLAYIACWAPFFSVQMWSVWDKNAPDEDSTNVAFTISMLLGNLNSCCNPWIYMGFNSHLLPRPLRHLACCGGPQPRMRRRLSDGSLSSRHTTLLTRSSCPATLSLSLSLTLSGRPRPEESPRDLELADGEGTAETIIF
IC50 [1] [nM],IC50 [2] [nM],Structure (SMILES)
3.7,3.2,"CC(C)NC(=O)Cn1cc(-c2ccc(CCN3CCOCC3)cc2)nc1-c1cccc(Cl)c1 [Example A-02, 2-[2-(3-chlorophenyl)-4-{4-[2-(morpholin-4-yl)ethyl]phenyl}-1H-imidazol-1-yl]-N-(propan-2-yl)acetamide]"
2.2,10,"CC(C)NC(=O)Cn1nc(-c2ccc(CCN3CCOCC3)cc2)nc1-c1cccc(Cl)c1 [Example B-02, 2-[5-(3-chlorophenyl)-3-{4-[2-(morpholin-4-yl)ethyl]phenyl}-1H-1,2,4-triazol-1-yl]-N-(propan-2-yl)acetamide]"
4.3,32,"CC(C)NC(=O)Cc1oc(-c2ccc(CCN3CC4(COC4)C3)cc2)nc1-c1cccc(Cl)c1 [Example C-12, 2-[4-(3-chlorophenyl)-2-{4-[2-(2-oxa-6-azaspiro[3.3]hept-6-yl)ethyl]phenyl}-1,3-oxazol-5-yl]-N-(propan-2-yl)acetamide]"
15,21,"CC(C)NC(=O)Cc1nn(-c2ccc(CCN3CCOCC3)cc2)c(=O)n1-c1cccc(Cl)c1 [Example D-01, 2-[4-(3-chlorophenyl)-1-{4-[2-(morpholin-4-yl)ethyl]phenyl}-5-oxo-4,5-dihydro-1H-1,2,4-triazol-3-yl]-N-(propan-2-yl)acetamide]"
3.5,13,"CC(C)(C)NC(=O)Cc1nn(-c2ccc(CCN3CCOCC3)cc2)c(=O)n1-c1cccc(Cl)c1 [Example D-13, N-tert-butyl-2-[4-(3-chlorophenyl)-1-{4-[2-(morpholin-4-yl)ethyl]phenyl}-5-oxo-4,5-dihydro-1H-1,2,4-triazol-3-yl]acetamide]"
10 to 100,–,"CC(C)NC(=O)Cc1nn(-c2ccc(CCN3CCCC3)cc2)c(=O)n1-c1cccc(Cl)c1 [Example D-45, 2-[4-(3-chlorophenyl)-5-oxo-1-{4-[2-(pyrrolidin-1-yl)ethyl]phenyl}-4,5-dihydro-1H-1,2,4-triazol-3-yl]-N-(propan-2-yl)acetamide]"
10 to 100,–,"CC(C)NC(=O)Cc1nn(-c2ccc(CCN3CCCCC3)cc2)c(=O)n1-c1cccc(Cl)c1 [Example D-46, 2-[4-(3-chlorophenyl)-5-oxo-1-{4-[2-(piperidin-1-yl)ethyl]phenyl}-4,5-dihydro-1H-1,2,4-triazol-3-yl]-N-(propan-2-yl)acetamide]"
100 to 1000,–,"CC(C)NC(=O)Cc1nn(-c2ccc(CCN3CC=CCC3)cc2)c(=O)n1-c1cccc(Cl)c1 [Example D-47, 2-[4-(3-chlorophenyl)-1-{4-[2-(3,6-dihydropyridin-1(2H)-yl)ethyl]phenyl}-5-oxo-4,5-dihydro-1H-1,2,4-triazol-3-yl]-N-(propan-2-yl)acetamide]"
10 to 100,–,"CC(C)NC(=O)Cc1nn(-c2ccc(CCN3CCSCC3)cc2)c(=O)n1-c1cccc(Cl)c1 [Example D-48, 2-[4-(3-chlorophenyl)-5-oxo-1-{4-[2-(thiomorpholin-4-yl)ethyl]phenyl}-4,5-dihydro-1H-1,2,4-triazol-3-yl]-N-(propan-2-yl)acetamide]"
100 to 1000,–,"CC1CCN(CCc2ccc(-n3nc(CC(=O)NC(C)C)n(-c4cccc(Cl)c4)c3=O)cc2)CC1 [Example D-49, 2-[4-(3-chlorophenyl)-1-{4-[2-(4-methylpiperidin-1-yl)ethyl]phenyl}-5-oxo-4-,5-dihydro-1H-1,2,4-triazol-3-yl]-N-(propan-2-yl)acetamide]"
100 to 1000,–,"COC1CCCN(CCc2ccc(-n3nc(CC(=O)NC(C)C)n(-c4cccc(Cl)c4)c3=O)cc2)C1 [Example D-50, 2-[4-(3-chlorophenyl)-1-{4-[2-(3-methoxypiperidin-1-yl)ethyl]phenyl}-5-oxo-4,5-dihydro-1H-1,2,4-triazol-3-yl]-N-(propan-2-yl)acetamide]"
100 to 1000,–,"CC(C)NC(=O)Cc1nn(-c2ccc(CCN3CCC4CCCCC4C3)cc2)c(=O)n1-c1cccc(Cl)c1 [Example D-51, 2-[4-(3-chlorophenyl)-1-{4-[2-(octahydroisoquinolin-2(1H)-yl)ethyl]phenyl}-5-oxo-4,5-dihydro-1H-1,2,4-triazol-3-yl]-N-(propan-2-yl)acetamide]"
100 to 1000,–,"CC(C)NC(=O)Cc1nn(-c2ccc(CCN3C[C@@H](C)O[C@@H](C)C3)cc2)c(=O)n1-c1cccc(Cl)c1 [Example D-52, 2-[4-(3-chlorophenyl)-1-(4-{2-[(2R,6S)-2,6-dimethylmorpholin-4-yl]ethyl}phenyl)-5-oxo-4,5-dihydro-1H-1,2,4-triazol-3-yl]-N-(propan-2-yl)acetamide]"
10 to 100,–,"CC(C)NC(=O)Cc1nn(-c2ccc(CCN3CCOCC3C)cc2)c(=O)n1-c1cccc(Cl)c1 [Example D-53, 2-[4-(3-chlorophenyl)-1-{4-[2-(3-methylmorpholin-4-yl)ethyl]phenyl}-5-oxo-4,5-dihydro-1H-1,2,4-triazol-3-yl]-N-(propan-2-yl)acetamide]"
10 to 100,–,"CCC1COCCN1CCc1ccc(-n2nc(CC(=O)NC(C)C)n(-c3cccc(Cl)c3)c2=O)cc1 [Example D-54, 2-[4-(3-chlorophenyl)-1-{4-[2-(3-ethylmorpholin-4-yl)ethyl]phenyl}-5-oxo-4,5-dihydro-1H-1,2,4-triazol-3-yl]-N-(propan-2-yl)acetamide]"
100 to 1000,–,"CC(C)NC(=O)Cc1nn(-c2ccc(CCN3CCC(C)(O)CC3)cc2)c(=O)n1-c1cccc(Cl)c1 [Example D-55, 2-[4-(3-chlorophenyl)-1-{4-[2-(4-hydroxy-4-methylpiperidin-1-yl)ethyl]phenyl}-5-oxo-4,5-dihydro-1H-1,2,4-triazol-3-yl]-N-(propan-2-yl)acetamide]"
10 to 100,–,"CC(C)NC(=O)Cc1nn(-c2ccc(CCN3CC4(CCOCC4)C3)cc2)c(=O)n1-c1cccc(Cl)c1 [Example D-56, 2-[4-(3-chlorophenyl)-1-{4-[2-(7-oxa-2-azaspiro[3.5]non-2-yl)ethyl]phenyl}-5-oxo-4,5-dihydro-1H-1,2,4-triazol-3-yl]-N-(propan-2-yl)acetamide]"
10 to 100,–,"CC(C)NC(=O)Cc1nn(-c2ccc(CCN3CCC(F)CC3)cc2)c(=O)n1-c1cccc(Cl)c1 [Example D-57, 2-[4-(3-chlorophenyl)-1-{4-[2-(4-fluoropiperidin-1-yl)ethyl]phenyl}-5-oxo-4,5-dihydro-1H-1,2,4-triazol-3-yl]-N-(propan-2-yl)acetamide]"
10 to 100,–,"CC(C)NC(=O)Cc1nn(-c2ccc(CCN3CCC(F)(F)CC3)cc2)c(=O)n1-c1cccc(Cl)c1 [Example D-58, 2-[4-(3-chlorophenyl)-1-{4-[2-(4,4-difluoropiperidin-1-yl)ethyl]phenyl}-5-oxo-4,5-dihydro-1H-1,2,4-triazol-3-yl]-N-(propan-2-yl)acetamide]"
100 to 1000,–,"CC(C)NC(=O)Cc1nn(-c2ccc(CCN3CCC(C(F)(F)F)CC3)cc2)c(=O)n1-c1cccc(Cl)c1 [Example D-59, 2-[4-(3-chlorophenyl)-5-oxo-1-(4-{2-[4-(trifluoromethyl)piperidin-1-yl]ethyl}phenyl)-4,5-dihydro-1H-1,2,4-triazol-3-yl]-N-(propan-2-yl)acetamide]"
100 to 1000,–,"CC(C)NC(=O)Cc1nn(-c2ccc(CCN3C(C)COCC3C)cc2)c(=O)n1-c1cccc(Cl)c1 [Example D-60, 2-[4-(3-chlorophenyl)-1-{4-[2-(3,5-dimethylmorpholin-4-yl)ethyl]phenyl}-5-oxo-4,5-dihydro-1H-1,2,4-triazol-3-yl]-N-(propan-2-yl)acetamide]"
10 to 100,–,"CC(C)NC(=O)Cc1nn(-c2ccc(CCN3CC4(COC4)C3)cc2)c(=O)n1-c1cccc(Cl)c1 [Example D-61, 2-[4-(3-chlorophenyl)-1-{4-[2-(2-oxa-6-azaspiro[3.3]hept-6-yl)ethyl]phenyl}-5-oxo-4,5-dihydro-1H-1,2,4-triazol-3-yl]-N-(propan-2-yl)acetamide]"

Structure (SMILES),IC50 [1] [nM],IC50 [2] [nM]
"CC(C)(C)NC(=O)Cc1nn(-c2ccc(CCN3C4CCC3COC4)cc2)c(=O)n1-c1cccc(Cl)c1 [Example D-14, N-tert-butyl-2-[4-(3-chlorophenyl)-1-{4-[2-(3-oxa-8-azabicyclo[3.2.1]oct-8-yl)ethyl]phenyl}-5-oxo-4,5-dihydro-1H-1,2,4-triazol-3-yl]acetamide]",4.7,12
"CC(C)NC(=O)Cc1nn(-c2ccc(CC(C)N3C4CCC3COC4)cc2)c(=O)n1-c1cccc(Cl)c1 [Example D-18, 2-[4-(3-chlorophenyl)-1-{4-[2-(3-oxa-8-azabicyclo[3.2.1]oct-8-yl)propyl]phenyl}-5-oxo-4,5-dihydro-1H-1,2,4-triazol-3-yl]-N-(propan-2-yl)acetamide]",1.5,0.65
